The text below walks through data of ChEMBL document CHEMBL1201862, “PubChem BioAssay data set” (2004).

Among the test systems are BT-549; DU-145; TK-10; SF-539; Malme-3M; NCI/ADR-RES; 786-0; OVCAR-8; HOP-62; MDA-N; UO-31; MDA-MB-435; UACC-62; RXF 393; HCT-116; NCI-H460; NCI-H522; MDA-MB-231; CAKI-1; HT-29.
Holding throughout (experiment): growth of human tumour cells (NCI), 48 h

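Grown in 96-well plates, cells were treated for 48 hours with each compound at five concentrations. Insufficient inhibition: endpoint recorded as highest concentration tested. Here, GI50 denotes the concentration required for 50% inhibition of growth.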 The source made the active and inactive calls. Cut-off read from the data, not from the text of the source: active = GI50 up to about 1.1 µM and inactive = higher.

For the compound `COc1cc(OC)cc(C(=O)CC(=O)c2cc(OC)cc(OC)c2)c1`, the GI50 in the test on BT-549, with DU-145, with TK-10, in the test with SF-539, in the test with Malme-3M and in the test with NCI/ADR-RES was > 100 µM (inactive) in each case. The GI50 is > 100 µM (inactive) with 786-0; > 100 µM (inactive) in the test with OVCAR-8; > 100 µM (inactive) in the test on HOP-62; > 100 µM (inactive) with MDA-N; > 100 µM (inactive) in the test on UO-31; 87.5 µM (inactive) in the test with MDA-MB-435. For the same compound, the GI50 in the test on UACC-62 was > 100 µM (inactive); in the test on RXF 393, > 100 µM (inactive); with HCT-116, 69.2 µM (inactive); in the test with NCI-H460 it was 56.9 µM (inactive).

As for `CC1(C)OC2OC(COC(=O)C=[N+]=[N-])C3OC(C)(C)OC3C2O1` (stereo not given), the GI50 in the test on NCI-H522, in the test with BT-549, in the test on MDA-MB-231, in the test on CAKI-1, in the test with HT-29 and in the test on DU-145 was > 100 µM (inactive) each time. In addition, the GI50 in the test on TK-10, in the test with Malme-3M, in the test with 786-0, with HOP-62, in the test on MDA-N and in the test with UO-31 was > 100 µM (inactive) each time. Further, the GI50 with MDA-MB-435, in the test with UACC-62, in the test with RXF 393, in the test on HCT-116 and in the test on NCI-H460 was > 100 µM (inactive) in each case.

`C=CCNC(NCC=C)=C(C(Cl)=C(Cl)Cl)[N+](=O)[O-]`: the GI50 was 26 µM (inactive) with BT-549; > 100 µM (inactive) with MDA-MB-231; 30.5 µM (inactive) in the test on CAKI-1; 54.6 µM (inactive) in the test with HT-29; 78.3 µM (inactive) in the test on DU-145; 21.3 µM (inactive) in the test with SF-539. Moreover, the GI50 in the test with Malme-3M was 16.4 µM (inactive); in the test with NCI/ADR-RES, 43.2 µM (inactive); with 786-0 it was 34.9 µM (inactive); in the test on OVCAR-8 it was 16.6 µM (inactive); in the test with HOP-62 it was > 100 µM (inactive); in the test with MDA-N it was 32.5 µM (inactive). Moreover, the GI50 in the test with UO-31 is 37.5 µM (inactive); with MDA-MB-435, 32 µM (inactive); with UACC-62, > 100 µM (inactive); in the test on HCT-116, 30.4 µM (inactive); in the test with NCI-H460 it was > 100 µM (inactive).

Consider `CC(=O)OCCN(C1=NCCN1)/[N+](C=c1ccc(=C=[N-])cc1)=C/c1ccc(C#N)cc1`, for which the GI50 in the test with NCI-H522, with BT-549, in the test with MDA-MB-231, in the test with CAKI-1, in the test with HT-29 and with TK-10 was > 100 µM (inactive) each time. In addition, the GI50 with SF-539 is > 100 µM (inactive); with Malme-3M it was > 100 µM (inactive); with NCI/ADR-RES, 94.6 µM (inactive); with 786-0 it was > 100 µM (inactive); with OVCAR-8 it was > 100 µM (inactive); in the test on HOP-62, > 100 µM (inactive). For the same compound, the GI50 in the test with MDA-N, in the test with UO-31, in the test on MDA-MB-435, in the test on UACC-62, in the test with RXF 393 and in the test with HCT-116 was > 100 µM (inactive) throughout. Further, in the test with NCI-H460, the GI50 is > 100 µM (inactive).

For `O=Nc1c(-c2c(O)[nH]c3ccc(I)cc23)[nH]c2ccccc12`, the GI50 is 2.82 µM (inactive) in the test with NCI-H522; 18 µM (inactive) in the test with BT-549; 3.79 µM (inactive) with MDA-MB-231; 2.45 µM (inactive) in the test on CAKI-1; 3.48 µM (inactive) with HT-29; 3.35 µM (inactive) with DU-145. In addition, the GI50 in the test on TK-10 is 5.38 µM (inactive); in the test on SF-539 it was 7.03 µM (inactive); in the test on NCI/ADR-RES, 8.2 µM (inactive); in the test with OVCAR-8 it was 4.95 µM (inactive); with MDA-N, 4.97 µM (inactive); in the test on UO-31, 2.19 µM (inactive). Besides, the GI50 with MDA-MB-435 is 4.55 µM (inactive); in the test with UACC-62, 2.69 µM (inactive); in the test on RXF 393, 2.36 µM (inactive); with HCT-116 it was 3.01 µM (inactive); in the test on NCI-H460 it was 3.7 µM (inactive).

As to `COc1cc(/C=C/c2cc(=O)cc(/C=C/c3ccc(O)c(OC)c3)o2)ccc1O`, the GI50 with NCI-H522 was 9.79 µM (inactive); in the test on BT-549, 99.8 µM (inactive); with MDA-MB-231, 26.4 µM (inactive); with CAKI-1 it was 64.3 µM (inactive); with HT-29 it was > 80.4 µM (inactive); in the test on DU-145, 31 µM (inactive). Moreover, the GI50 in the test on TK-10 is > 75.5 µM (inactive); in the test with SF-539, > 62.5 µM (inactive); in the test with Malme-3M it was > 69.5 µM (inactive); with NCI/ADR-RES, 98.4 µM (inactive); in the test with 786-0, 23.3 µM (inactive); with OVCAR-8, 46.2 µM (inactive). In addition, the GI50 in the test on HOP-62 was 22 µM (inactive); with UO-31, > 100 µM (inactive); with MDA-MB-435, 35.5 µM (inactive); in the test on UACC-62, 44.1 µM (inactive); with RXF 393 it was 15.9 µM (inactive); in the test on HCT-116, > 55.5 µM (inactive). Also, in the test on NCI-H460, the GI50 was 44 µM (inactive).

For the compound `COC(=O)C(Cc1cn(C(C)n2cc(CC(NC(C)=O)C(=O)OC)c3ccccc32)c2ccccc12)NC(C)=O` (stereo not given), the GI50 is 12.2 µM (inactive) in the test on NCI-H522; > 100 µM (inactive) in the test with BT-549; 44.5 µM (inactive) in the test on MDA-MB-231; > 100 µM (inactive) in the test on CAKI-1; > 100 µM (inactive) with HT-29; > 100 µM (inactive) with DU-145. The GI50 in the test on TK-10 was > 100 µM (inactive); in the test with Malme-3M it was 13.7 µM (inactive); in the test with HOP-62 it was > 100 µM (inactive); in the test with MDA-N, > 100 µM (inactive); in the test on UO-31 it was 66.4 µM (inactive); with MDA-MB-435, > 100 µM (inactive). Besides, the GI50 is 98.2 µM (inactive) in the test on UACC-62, > 100 µM (inactive) in the test with HCT-116 and 63.2 µM (inactive) in the test with NCI-H460.

With `c1ccc(/N=C2\C(=N/c3ccccc3)N(C3CCCCC3)/C(=N\C3CCCCC3)N2c2ccccc2)cc1`, the GI50 in the test with BT-549, with MDA-MB-231, with HT-29, in the test with TK-10, in the test on Malme-3M and in the test on 786-0 was > 100 µM (inactive) each time. The GI50 in the test on OVCAR-8, in the test with HOP-62, in the test with MDA-N, with UO-31, in the test on RXF 393 and in the test on HCT-116 was > 100 µM (inactive) each time. Besides, the GI50 in the test with NCI-H460 was > 100 µM (inactive).

Consider `O=[N+]([O-])c1ccc(-c2nc3cc(Cl)ccc3[nH]2)cc1`, for which the GI50 in the test with NCI-H522 was 14.4 µM (inactive); in the test on BT-549, 99.1 µM (inactive); in the test on MDA-MB-231, > 100 µM (inactive); with CAKI-1, 62.7 µM (inactive); in the test with HT-29, 51.4 µM (inactive); in the test on DU-145, 72.1 µM (inactive). Besides, the GI50 with TK-10 was > 100 µM (inactive); in the test on SF-539, 54.6 µM (inactive); with Malme-3M it was > 100 µM (inactive); with NCI/ADR-RES, 31.3 µM (inactive); in the test on 786-0, 86.7 µM (inactive); in the test on OVCAR-8, 59.6 µM (inactive). For the same compound, the GI50 in the test with HOP-62 is > 100 µM (inactive); in the test on MDA-N, 39.7 µM (inactive); in the test on UO-31 it was 26.1 µM (inactive); in the test on MDA-MB-435, 41.6 µM (inactive); in the test on UACC-62 it was 81.1 µM (inactive); with HCT-116, 49.2 µM (inactive). Also, in the test on NCI-H460, the GI50 was 37.2 µM (inactive).

As to `OC1(c2ccc(Cl)cc2)c2c(c3ccccc3c3ccccc23)C2=NCCN21` (stereo not given), the GI50 in the test with BT-549 was 16.5 µM (inactive); in the test on MDA-MB-231, 12 µM (inactive); with CAKI-1 it was 19.4 µM (inactive); with HT-29 it was 14.6 µM (inactive); in the test with DU-145 it was 17.4 µM (inactive); in the test with TK-10, 4.98 µM (inactive). The GI50 with SF-539 is 11.2 µM (inactive); with Malme-3M, 16.5 µM (inactive); in the test with NCI/ADR-RES, 11.5 µM (inactive); in the test with 786-0 it was 4.02 µM (inactive); in the test on OVCAR-8 it was 11.9 µM (inactive); in the test on HOP-62, 11.3 µM (inactive). The GI50 with MDA-N is 19.8 µM (inactive); in the test on UO-31, 10.7 µM (inactive); in the test on MDA-MB-435 it was 29.7 µM (inactive); in the test on UACC-62, 15.9 µM (inactive); in the test on RXF 393, 11.4 µM (inactive); in the test on HCT-116 it was 10.9 µM (inactive). Moreover, the GI50 with NCI-H460 is 15.8 µM (inactive).

On to `C=CC(=O)NCCC(=O)OCn1cc(F)c(=O)[nH]c1=O`, for which the GI50 is 9.4 µM (inactive) in the test on NCI-H522; > 100 µM (inactive) in the test on BT-549; 3.2 µM (inactive) with CAKI-1; 4.12 µM (inactive) in the test with HT-29; 3.64 µM (inactive) in the test on DU-145; 0.838 µM (active) in the test on TK-10. The GI50 with SF-539 was 2.65 µM (inactive); in the test with Malme-3M it was 4.59 µM (inactive); in the test with NCI/ADR-RES, 27 µM (inactive); in the test on 786-0, 2.92 µM (inactive); with OVCAR-8, 11.5 µM (inactive); in the test with HOP-62, 4.98 µM (inactive). Moreover, the GI50 with MDA-N was 1.56 µM (inactive); in the test with UO-31 it was 2.33 µM (inactive); with MDA-MB-435 it was 5.32 µM (inactive); in the test with UACC-62, 4.08 µM (inactive); in the test with RXF 393, 10.1 µM (inactive); in the test on HCT-116 it was 3.24 µM (inactive). The GI50 in the test on NCI-H460 was 0.434 µM (active).
